According to patent US20240041042A1, “1-(PYRIDYL)-5-AZINYLPYRAZOLE DERIVATIVES, AND THEIR USE FOR CONTROL OF UNDESIRED PLANT GROWTH” (Bayer Aktiengesellschaft, priority 2020, published 2024):
Where two headings read alike, the source gives them in different places.

Legend:
Type in all cases: in vivo
[1] = tested on: Abutilon theophrasti (ABUTH); assay: Post-emergence herbicidal action against ABUTH; conditions: 320 g/ha, visual rating about 3 weeks after treatment vs untreated controls (100% = plants have died, 0% = like control plants)
Summary of the method: (§1)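 Greenhouse plants sprayed at the one-leaf stage, 2–3 weeks after sowing, with WP or EC formulations plus 0.5% additive at 600 l/ha water. Activity rated visually after about 3 weeks versus untreated controls (100% = dead, 0% = like control), at 320 g/ha or lower.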

[2] = tested on: Verconica persica (VERPE); assay: Post-emergence herbicidal action against VERPE
Summary of the method: as §1

Viola tricolor (VIOTR) [3] = assay: Post-emergence herbicidal action against VIOTR
Summary of the method: as §1

[4] = tested on: Triticum aestivum (TRZAS); conditions: crop plant compatibility, effect vs untreated controls
Summary of the method: (§2)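 Visual rating (% effect vs. untreated plants; 100% = plant death) made about 3 weeks after treatment. Plants had been sprayed at one-leaf stage, 2–3 weeks post-sowing, with aqueous WP/EC preparations containing 0.5% additive, 600 l/ha water volume; a, b, c mark dose levels.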

Zea mays (ZEAMX) = conditions: for Post-emergence action against ZEAMX in % (crop plant compatibility): 20 g/ha, effect in comparison to untreated controls; for Post-emergence action against ZEAMX in %: crop plant compatibility, effect vs untreated controls
Summary of the method: as §2

[5] = tested on: Pharbitis purpurea (PHBPU); assay: Post-emergence herbicidal action against PHBPU; conditions: dosage 320 g/ha
Summary of the method: as §1

[6] = tested on: Alopecurus myosuroides (ALOMY); assay: Post-emergence herbicidal action against ALOMY; conditions: 320 g/ha, visual rating about 3 weeks after treatment vs untreated controls (100% = plants have died, 0% = like control plants)
Summary of the method: as §1

[7] = tested on: Amaranthus retroflexus (AMARE); assay: Post-emergence herbicidal action against AMARE; conditions: 320 g/ha, visual rating about 3 weeks after treatment
Summary of the method: as §1

Avena fatua (AVEFA) = assay: Post-emergence herbicidal action against AVEFA; conditions: 320 g/ha, visual rating about 3 weeks after treatment
Summary of the method: as §1

[8] = tested on: Echinochloa crus-galli (ECHCG); assay: Post-emergence herbicidal action against ECHCG; conditions: dosage 320 g/ha
Summary of the method: as §1

[9] = tested on: Polygonum convolvulus (POLCO); assay: Post-emergence herbicidal action against POLCO
Summary of the method: as §1

Setaria viridis (SETVI) = assay: Post-emergence herbicidal action against SETVI; conditions: dosage 320 g/ha
Summary of the method: as §1

Oryza sativa (ORYSA) = conditions: crop plant compatibility
Summary of the method: as §2

Lolium rigidum (LOLRI) = assay: Post-emergence herbicidal action against LOLRI; conditions: dosage 320 g/ha
Summary of the method: as §1

[10] = tested on: Amaranthus retroflexus (AMARE); assay: Pre-emergence herbicidal action against AMARE; conditions: 320 g/ha, visual scoring after about 3 weeks vs untreated controls
Summary of the method: (§3)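 Read-out is visual percent damage relative to untreated pots, with 100% meaning dead plants and 0% meaning no difference, assessed roughly three weeks after treatment. Compounds were applied pre-emergence to the covering soil at up to 320 g/ha.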

[11] = tested on: Echinochloa crus-galli (ECHCG); assay: Pre-emergence herbicidal action against ECHCG; conditions: dosage 320 g/ha
Summary of the method: as §3

[12] = tested on: Polygonum convolvulus (POLCO); assay: Pre-emergence herbicidal action against POLCO; conditions: dosage 320 g/ha
Summary of the method: as §3

[13] = tested on: Verconica persica (VERPE); assay: Pre-emergence herbicidal action against VERPE; conditions: dosage 320 g/ha
Summary of the method: as §3

Viola tricolor (VIOTR) [14] = assay: Pre-emergence herbicidal action against VIOTR; conditions: 320 g/ha, Viola tricolor
Summary of the method: as §3

[15] = 20 g/ha, effect vs untreated controls
[16] = 80 g/ha, effect in comparison to untreated controls
[17] = 320 g/ha, effect in comparison to untreated controls

SMILES | Post-emergence action against ABUTH in % [1] [%] | Post-emergence action against VERPE in % ([2]; 320 g/ha, VERPE) [%] | Post-emergence action against VIOTR in % (Viola tricolor (VIOTR) [3]; 80 g/ha) [%] | Post-emergence action against VIOTR in % (Viola tricolor (VIOTR) [3]; 320 g/ha) [%] | Post-emergence action against TRZAS in % ([4]; 20 g/ha) [%] | Post-emergence action against TRZAS in % ([4]; 80 g/ha) [%] | Post-emergence action against ZEAMX in % (crop plant compatibility) (Zea mays (ZEAMX)) [%] | Post-emergence action against ZEAMX in % (Zea mays (ZEAMX); 80 g/ha) [%] | Post-emergence action against PHBPU in % [5] [%] | Post-emergence action against ALOMY in % [6] [%] | Post-emergence action against AMARE in % [7] [%] | Post-emergence action against AVEFA in % (Avena fatua (AVEFA)) [%] | Post-emergence action against ECHCG in % [8] [%] | Post-emergence action against POLCO in % ([9]; dosage 320 g/ha) [%] | Post-emergence action against SETVI in % (Setaria viridis (SETVI)) [%] | Post-emergence action against VERPE in % ([2]; dosage 80 g/ha) [%] | Post-emergence action against ORYSA in % (Oryza sativa (ORYSA); [15]) [%] | Post-emergence action against ORYSA in % (Oryza sativa (ORYSA); [16]) [%] | Post-emergence action against ORYSA in % (Oryza sativa (ORYSA); [17]) [%] | Post-emergence action against ZEAMX in % (Zea mays (ZEAMX); 320 g/ha) [%] | also measured
O=C(O)COc1nn(-c2ccccn2)c(-c2ccc(F)nc2)c1C1CC1(F)F (centres unmarked) [Example I-249] | 80 | 80 | 80 | 80 | 0 | 0 | 0 | 20 | – | – | – | – | – | – | – | – | – | – | – | – | Post-emergence action against TRZAS in % ([4]; 320 g/ha): 0%
COC(=O)C(C)COC(=O)COc1nn(-c2ncccc2C(F)(F)F)c(-c2ccc(F)nc2)c1C1CC1(F)F (centres unmarked) [Example I-268] | 80 | 80 | 80 | 80 | 0 | 0 | 0 | 0 | 80 | – | – | – | – | – | – | – | – | – | – | – | –
COCCOC(=O)COc1nn(-c2cccnc2C)c(-c2cncc(F)c2)c1Br [II-40] | 80 | 90 | 90 | 90 | 0 | 20 | 0 | 0 | 80 | 90 | 80 | 90 | 90 | 80 | 90 | 80 | 0 | 0 | 0 | 10 | Post-emergence action against POLCO in % ([9]; dosage 80 g/ha): 80%
CCOC(=O)COc1nn(-c2ncccc2F)c(-c2ccnc(F)c2)c1I [Example I-137] | 80 | 80 | 80 | 80 | 20 | 20 | 0 | 0 | – | 80 | 80 | – | 80 | 80 | – | – | 0 | 10 | 20 | 20 | Post-emergence action against LOLRI in % (Lolium rigidum (LOLRI)): 90%; Post-emergence action against POLCO in % ([9]; dosage 80 g/ha): 80%
CCOC(=O)COc1nn(-c2cccnc2C)c(-c2ccc(F)nc2)c1Br [II-46] | – | 90 | – | 90 | 0 | 0 | 0 | 0 | – | 80 | – | – | – | 80 | – | – | 0 | 0 | 0 | 20 | –
COC(=O)[C@@H](C)Oc1nn(-c2ncccc2F)c(-c2ccnc(F)c2)c1I [Example I-138] | 80 | 80 | 80 | 80 | 10 | – | 20 | 20 | 80 | – | – | – | 90 | 80 | 80 | – | 0 | 0 | 20 | – | Post-emergence action against LOLRI in % (Lolium rigidum (LOLRI)): 90%
Cc1ncccc1-n1nc(OCC(=O)OCc2ccccn2)c(Br)c1-c1cncc(F)c1 [II-39] | 80 | 90 | 80 | 90 | 0 | 20 | 0 | 0 | 90 | 90 | 80 | 90 | 90 | – | 90 | 80 | 0 | 0 | 0 | 20 | –
COC(=O)CNC(=O)COc1nn(-c2ncccc2C(F)(F)F)c(-c2cncc(F)c2)c1Br [Example I-205] | – | – | – | – | – | 10 | – | 0 | – | – | – | – | – | – | – | – | – | 0 | 10 | 0 | Pre-emergence action against AMARE in % [10]: 80%; Pre-emergence action against ECHCG in % [11]: 80%; Pre-emergence action against POLCO in % [12]: 80%; Pre-emergence action against VERPE in % [13]: 100%; Pre-emergence action against VIOTR in % (Viola tricolor (VIOTR) [14]): 100%; Post-emergence action against TRZAS in % ([4]; 320 g/ha): 10%
Cc1ncccc1-n1nc(OCC(=O)O)c(Br)c1-c1cncc(F)c1 [II-38] | 80 | 90 | 90 | 90 | 0 | 10 | 0 | 0 | 80 | 100 | 80 | 90 | 90 | 90 | 90 | 80 | 0 | 0 | 0 | 0 | –
